Reference: US7241812B2, “Methods and compositions for modulating sphingosine-1-phosphate (S1P) receptor activity” (Praecis Pharmaceuticals, Inc., priority 2004, dated 2007)

Columns and labels:
S1P1 receptor = biological target: T1, S1P1 receptor (Homo sapiens, UniProt P21453); experiment: Binding to S1P1 receptor, [33P]sphingosine 1-phosphate displacement on membranes of transfected HEK 293 T cells; conditions: 2.5 pM [33P]sphingosine 1-phosphate, 60 minutes at room temperature
T1 construct: expressed in transfected cells; host or cells: HEK 293 T cells (crude membrane preparation)
Method: (§1) The ability of several of the compounds described herein to bind to the S1P1 or S1P3 receptor was also tested as follows.
(§2) For the membrane preparation, plasmid DNA was transfected into HEK 293 T cells using the FuGENE 6 transfection protocol (publicly available by Roche). Briefly, subconfluent monolayers of HEK 293 T cells were transfected with the DNA mixture containing FuGENE 6 (using a 1:3 ratio). The dishes containing the cells were then placed in a tissue culture incubator (5% CO2, 37° C.). The cells were harvested 48 hours after addition of the DNA by scraping in HME buffer (in mM: 20 HEPES, 5 MgCl2, 1 EDTA, pH 7.4, 1 mM PMSF) containing 10% sucrose on ice, and disrupted using a Dounce homogenizer. After centrifugation at 800×g, the supernatant was diluted with HME without sucrose and centrifuged at 17,000×g for 1 hour. This crude membrane pellet was resuspended in HME with sucrose, aliquoted, and snap-frozen by immersion in liquid nitrogen. The membranes were stored at −70 C. Protein concentration was determined spectroscopically by Bradford protein assay.
(§3) For the binding assay, [^33P]sphingosine 1-phosphate (obtained from American Radiolabeled Chemicals, Inc) was added to membranes in 200 μl in 96-well plates with assay concentrations of 2.5 pM [^33P]sphingosine 1-phosphate, 4 mg/ml BSA, 50 mM HEPES, pH 7.5, 100 mM NaCl, 5 mM MgCl2, and 5 μg of protein. Binding was performed for 60 minutes at room temperature with gentle mixing and terminated by collecting the membranes onto GF/B filter plates. After drying the filter plates for 10 minutes, 50 μl of Microscint 40 was added to each well, and filter-bound radionuclide was measured on a Packard Top Count. Nonspecific binding was defined as the amount of radioactivity remaining in the presence of excess of unlabeled S1P.

S1P3 receptor = biological target: T2, S1P3 receptor (Homo sapiens, UniProt Q99500); experiment: Binding to S1P3 receptor, [33P]sphingosine 1-phosphate displacement on membranes of transfected HEK 293 T cells; conditions: 2.5 pM [33P]sphingosine 1-phosphate, 60 minutes at room temperature
T2 construct: expressed in transfected cells; host or cells: HEK 293 T cells (crude membrane preparation)
Method: as §1, §2, §3

T1 sequence (P21453 whole entry): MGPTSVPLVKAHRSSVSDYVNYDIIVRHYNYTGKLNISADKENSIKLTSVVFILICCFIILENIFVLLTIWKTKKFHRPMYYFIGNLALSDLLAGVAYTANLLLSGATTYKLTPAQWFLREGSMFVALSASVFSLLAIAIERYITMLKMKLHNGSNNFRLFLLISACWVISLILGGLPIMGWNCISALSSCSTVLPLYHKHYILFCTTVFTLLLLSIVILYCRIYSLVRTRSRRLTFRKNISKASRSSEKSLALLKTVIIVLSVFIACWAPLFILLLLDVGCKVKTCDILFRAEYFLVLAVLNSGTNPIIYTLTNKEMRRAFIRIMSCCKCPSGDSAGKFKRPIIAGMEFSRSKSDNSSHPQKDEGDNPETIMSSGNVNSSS
T2 sequence (Q99500 whole entry): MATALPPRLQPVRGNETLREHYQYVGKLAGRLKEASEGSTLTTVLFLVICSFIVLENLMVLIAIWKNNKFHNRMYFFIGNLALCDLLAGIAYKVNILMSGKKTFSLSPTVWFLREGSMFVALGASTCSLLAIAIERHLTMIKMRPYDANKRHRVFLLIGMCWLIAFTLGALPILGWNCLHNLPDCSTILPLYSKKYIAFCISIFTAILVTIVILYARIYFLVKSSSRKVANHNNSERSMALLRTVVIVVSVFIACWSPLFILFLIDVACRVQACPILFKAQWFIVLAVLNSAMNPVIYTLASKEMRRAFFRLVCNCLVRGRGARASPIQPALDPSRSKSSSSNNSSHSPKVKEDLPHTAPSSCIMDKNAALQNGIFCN

IC50 (S1P1 receptor)	IC50 (S1P3 receptor)	Compound
1 µM	> 10 µM	COc1ccc(CCOc2ccc(NC(=O)[C@@](C)(N)CO)cc2)cc1OC [compound 34]
0.0024 µM	0.343 µM	CCCCCCCCc1ccc(CCC2(N)COP(=O)(O)OC2)cc1 (centres unmarked) [compound 45]
0.25 µM	5 µM	CCc1ccc(-c2ccc(CCOc3ccc(NC(=O)[C@@](C)(N)CO)cc3)cc2)cc1 [compound 46]
0.023 µM	5 µM	CCOc1ccc(-c2ccc(CCOc3ccc(NC(=O)[C@@](C)(N)CO)cc3)cc2)cc1 [compound 47]
0.24 µM	8 µM	C[C@](N)(CO)C(=O)Nc1ccc(OCCc2ccc(-c3ccc(Cl)cc3)cc2)cc1 [compound 49]
0.0035 µM	0.05 µM	COc1cccc(Oc2ccc(NC(=O)[C@@](C)(N)CO)cc2)c1 [compound 59]
2 µM	> 10 µM	C[C@](N)(COP(=O)(O)O)C(=O)Nc1ccc(-c2cnn(Cc3ccccc3)c2)cc1 [compound 105]
0.023 µM	2.15 µM	COc1ccc(CCCCOc2ccc(NC(=O)[C@@](C)(N)COP(=O)(O)O)cc2)cc1 [compound 110]
0.015 µM	0.164 µM	Cc1cc(NC(=O)[C@@](C)(N)CO)ccc1Oc1ccccc1 [compound 124]
2 µM	–	CCCCCCNC(=O)c1ccc(NC(=O)[C@@H](N)[C@@H](C)O)cc1 [compound 125]
> 10 µM	> 10 µM	CCCCCCCN(C)C(=O)c1ccc(NC(=O)[C@@H](N)[C@@H](C)O)cc1 [compound 126]
0.056 µM	0.059 µM	CCCCCCCc1ccc(C(=O)N[C@@H](C)CO)cc1 [compound 127]
0.00084 µM	0.16 µM	CCCCCNC(=O)c1ccc(NC(=O)[C@@H](N)[C@@H](C)O)cc1 [compound 128]
0.0179 µM	6.33 µM	C[C@](N)(CO)C(=O)Nc1ccc(Oc2ccccc2)cc1 [compound 129]
0.09 µM	> 10 µM	C[C@](N)(COc1ccccc1)C(=O)Nc1ccc(Oc2ccccc2)cc1 [compound 130]
0.218 µM	0.833 µM	CCc1ccc(OC[C@](C)(N)C(=O)Nc2ccc(Oc3ccc(CC)cc3)cc2)cc1 [compound 131]
0.167 µM	3.5 µM	CCCCc1ccc(OC[C@](C)(N)C(=O)Nc2ccc(Oc3ccc(CCCC)cc3)cc2)cc1 [compound 132]
0.65 µM	> 10 µM	CCCCc1ccc(Oc2ccc(NC(=O)[C@@](C)(N)CO)cc2)cc1 [compound 133]
0.114 µM	1.2 µM	CCc1ccc(Oc2ccc(NC(=O)[C@@](C)(N)CO)cc2)cc1 [compound 134]

IC50 (S1P1 receptor)	IC50 (S1P3 receptor)	Compound
0.0221 µM	2.5 µM	CCCCOc1ccc(Oc2ccc(NC(=O)[C@@](C)(N)CO)cc2)cc1 [compound 135]
4 µM	> 10 µM	CCCCCCCCc1ccc(OC2CN[C@H](CO)C2)cc1 (some centres unmarked) [compound 137]
3.8 µM	> 10 µM	C[C@](N)(CO)C(=O)Nc1ccc(Oc2ccc(Cl)cc2)cc1 [compound 138]
0.0025 µM	0.22 µM	C[C@](N)(CO)C(=O)Nc1ccc(Oc2ccc(F)cc2)cc1 [compound 139]
0.012 µM	1.04 µM	CC(N)(CO)C(=O)Nc1ccc(OCCCCc2ccc(C(F)(F)F)cc2)cc1 (centres unmarked) [compound 141]
0.008 µM	0.315 µM	COc1cccc(-c2ccc(NC(=O)[C@@](C)(N)CO)cc2)c1 [compound 142]
2.4 µM	> 10 µM	CCCOc1cccc(-c2ccc(NC(=O)[C@@](C)(N)CO)cc2)c1 [compound 144]
0.0034 µM	2 µM	CC(C)Oc1cccc(-c2ccc(NC(=O)[C@@](C)(N)CO)cc2)c1 [compound 145]
0.166 µM	0.13 µM	C[C@](N)(CO)C(=O)Nc1ccc(-c2cccc(OCc3ccccc3)c2)cc1 [compound 147]
> 10 µM	> 10 µM	C[C@](N)(CO)c1ncc(-c2ccc(OCCc3ccc(-c4ccccc4)cc3)cc2)[nH]1 [compound 148]
0.00055 µM	5.03 µM	CC(C)c1ccc(-c2ccc(CCOc3ccc(NC(=O)[C@@](C)(N)CO)cc3)cc2)cc1 [compound 150]
> 10 µM	> 10 µM	Cc1ccccc1-c1ccc(CCOc2ccc(NC(=O)[C@@](C)(N)CO)cc2)cc1 [compound 152]
0.0008 µM	0.285 µM	C[C@](N)(CO)C(=O)Nc1ccc(OCc2ccc(-c3ccccc3)cc2)cc1 [compound 153]
0.021 µM	> 10 µM	C[C@](N)(CO)C(=O)Nc1ccc(-c2csc(-c3ccc(-c4ccccc4)cc3)n2)cc1 [compound 154]
> 10 µM	> 10 µM	C[C@](N)(CO)C(=O)Nc1ccc(OCCc2cccc(-c3ccccc3)c2)cc1 [compound 155]
0.006 µM	3.25 µM	C[C@](N)(CO)C(=O)Nc1ccc(OCCc2ccc(-c3ccncc3)cc2)cc1 [compound 156]
0.0013 µM	–	C[C@](N)(CO)C(=O)Nc1ccc(OCCc2ccc(-c3ccoc3)cc2)cc1 [compound 157]
0.15 µM	> 1 µM	C[C@](N)(CO)C(=O)Nc1ccc(OCCc2ccc(-c3cccs3)cc2)cc1 [compound 158]
0.5 µM	> 1 µM	CC(COc1ccc(NC(=O)[C@@](C)(N)CO)cc1)c1ccc(-c2ccccc2)c(F)c1 (some centres unmarked) [compound 160]
